Measurements: patent US5219872A, “Compounds of 1,2,5,6-tetrahydropyridin-3-carboxaldehyde oxime which are useful as cholinergic agents” (Roussel UCLAF, priority 1986, dated 1993)
Structures can show the parent of a compound that is named as a salt. Where two headings read alike, the source gives them in different places.

Assays:
in vivo = conditions: rat, oral route, male rats CD1, fasting 16 hours, mortality in seven days
Protocol: Male rats (CD1 Charles Rivers) were used, weighing […], fasting for 16 hours. […] The mortality was checked in the seven days following the treatment.

[1] = test system: isolated ileum from guinea-pigs; experiment: Isolated guinea-pig ileum: contracting (agonist) activity; conditions: Cavia porcellus, read-out: pD2 (negative logarithm of the dose which produces 50% of the maximum effect) (converted)
Protocol: Sections of ileum were removed from guinea-pigs killed by decapitation. […] The contracting effect of the compounds was detected, with an isometric transducer connected to a recorder. The products under test were added at scalar concentrations between 1×10^-3 and 1×10^-8 moles.
The agonist activity was expressed in pD2 (negative logarithm of the dose which produces 50% of the maximum effect.)

[2] = test system: isolated ileum from guinea-pigs (response induced with acetylcholine); experiment: Isolated guinea-pig ileum: antagonist activity against acetylcholine; conditions: Cavia porcellus; antagonist activity vs acetylcholine; Tyrode's solution 37° C.; products added between 1×10^-3 and 1×10^-8 moles; read-out: ED50 (dose inhibiting 50% of the maximum response induced with acetylcholine)
Protocol: ILEUM FROM GUINEA-PIGS Sections of ileum were removed from guinea-pigs killed by decapitation. The isolated ileum was suspended in a bath containing 10 ml of Tyrode's solution thermo-regulated at 37° C. and aerated with a mixture of O2 (95%) and CO2 (5%). The contracting effect of the compounds was detected, with an isometric transducer connected to a recorder. The products under test were added at scalar concentrations between 1×10^-3 and 1×10^-8 moles. The products endowed with contracting activity were checked against atropine or hexamethonium to establish whether the activity was of muscarine type or nicotine type. The possible antagonist activity of the products was tested against acetylcholine.

[3] = Hypothermic activity (central cholinomimetic activity); format: in vivo; conditions: Mus musculus, read-out: Effective dose (-1° C.)
Protocol: (§1) Male mice (CD1 Charles Rivers) were used, weighing 25-30 g, fasting for 6 hours. The body temperature was noted by means of a thermo-couple, inserted in the rectum for about 1.5 cm and connected to an electric temperature indicator.
(§2) The degree of hypothermia was evaluated as the difference between the treated and the control animals, and the dose was determined which was necessary to reduce the body temperature by 1° C.

Diarrhoea activity = conditions: rat, in vivo, po
Protocol: Male rats (CD1 Charles Rivers) were used, weighing 25-30 g, fasting for 6 hours. The compounds were administered by oral route, by means of an oesophagic probe, dissolved at 0.5% in methocel. The controls received only the vehicle (20 ml/Kg).
1: faeces moderately soft with or without formation of a halo of humidity
2: faeces moderately soft with formation of a well defined circle of humidity,
3: faeces soft, with formation of a large circle of humidity,
4: faeces without consistency with formation of a very large circle of humidity.

[4] = Duration of action: variations of the body temperature; format: in vivo, mouse; conditions: dose mg/kg: Example 3 0,15, 7 1,25
Protocol: as §1, §2
The duration of action of the products was evaluated using doses of equal ability to cause a reduction of body temperature of 1°-1,5° C.

[5] = test system: patients having a memory defect; conditions: intravenous route; Sitaram 1978, Christie 1981; cited from earlier work
[6] = cited from earlier work
[7] = agonist activity, Tyrode's solution 37° C.
[8] = sc, sub-cutaneous, dose to reduce the body temperature by 1° C.
[9] = oral, dose to reduce the body temperature by 1° C.
[10] = os, 0 minutes, 8 0,5, 10 0,5, arecoline HBr 200
[11] = os, 30 minutes, 8 0,5, 10 0,5, arecoline HBr 200, ** p < 0,01 vs controls (all values)
[12] = os, 60 minutes, 8 0,5, 10 0,5, arecoline HBr 200, ** p < 0,01 vs controls (all values)
[13] = os, 120 minutes, 8 0,5, 10 0,5, arecoline HBr 200, ** p < 0,01 for Example 7 only
[14] = os, 180 minutes, 8 0,5, 10 0,5, arecoline HBr 200
[15] = sc, 30 minutes, 8 1, 10 0,75, arecoline HBr 3,5, ** p < 0,01 vs controls (all values)
[16] = sc, 60 minutes, 8 1, 10 0,75, arecoline HBr 3,5, ** p < 0,01 for Examples 3, 7, 8, 10
[17] = sc, 120 minutes, 8 1, 10 0,75, arecoline HBr 3,5, ** p < 0,01 for Example 7 only
[18] = sc, 180 minutes, 8 1, 10 0,75, arecoline HBr 3,5

Structure (SMILES)	LD50 at 168 h (in vivo)	EC50 [1, 7]	IC50 [2]	ED (-1 C) [3, 8]	ED (-1 C) [3, 9]	ED50 (Diarrhoea activity)	variation of the body temperature [4, 11]	variation of the body temperature [4, 12]	variation of the body temperature [4, 13]	variation of the body temperature [4, 15]	variation of the body temperature [4, 16]	variation of the body temperature [4, 17]	variation of the body temperature [4, 18]	other results
CCCCN1CCC=C(C=NOC)C1 [Example 9, 1-butyl-1,2,5,6-tetrahydropyridin-3-carboxaldehyde-O-methyloxime]	30 mg/kg	> 1000 µM	230 µM	0.85 mg/kg	0.79 mg/kg	3.5 mg/kg								
CN(C)CCON=CC1=CCCN(C)C1 [Example 6, 3-[2-(N,N-dimethylaminoethoxyimino)-methyl]-1-methyl-1,2,5,6-tetrahydropyridine]	750 mg/kg	148 µM			135 mg/kg	> 100 mg/kg								
CON=CC1=CCCN(C)C1 [Example 1, 1-methyl-1,2,5,6-tetrahydropyridin-3-carboxyaldehyde-O-methyloxime hydrochloride]		0.525 µM		0.14 mg/kg	0.46 mg/kg	0.6 mg/kg								
C=CCN1CCC=C(C=NOC)C1 [Example 10, 1-allyl-1,2,5,6-tetrahydropyridin-3-carboxaldehyde-O-methyloxime]	175 mg/kg	15.8 µM		0.86 mg/kg	0.34 mg/kg	1.2 mg/kg	-1,5 °C	-0,7 °C	-0,1 °C	-0,8 °C	-1,0 °C	-0,1 °C	+0,1 °C	variation of the body temperature [4, 10]: -0,1 °C; variation of the body temperature [4, 14]: +0,2 °C
COC(=O)C1=CCCN(C)C1 [Arecoline HBr, reference compound]						35 mg/kg	-1,1 °C	-1,0 °C	-0,2 °C	-1,5 °C	-0,1 °C	+0,2 °C	+0,2 °C	ED (-1 C) ([3]; po): 194 mg/kg; ED (-1 C) ([3]; sc): 3 mg/kg; variation of the body temperature [4, 10]: +0,1 °C; variation of the body temperature [4, 14]: -0,1 °C; variation of the body temperature ([4]; sc, 0 minutes, 8 1, 10 0,75, arecoline HBr 3,5): -0,1 °C
CCCCCN1CCC=C(C=NOC)C1 [Example 11, 1-pentyl-1,2,5,6-tetrahydropyridin-3-carboxaldehyde-O-methyloxime]	175 mg/kg	> 1000 µM	160 µM	4 mg/kg	3 mg/kg	5 mg/kg								
CC(=O)ON=CC1=CCCN(C)C1 [Example 5, 1-methyl-1,2,5,6-tetrahydropyridin-3-carboxaldehyde-0-acetyl-oxime]	500 mg/kg	51.3 µM			39 mg/kg	> 100 mg/kg								
CON=CC1=CCCNC1.Cl [Example 3, 1,2,5,6-tetrahydropyridin-3-carboxaldehyde-O-methyloxime Hydrochloride]	75 mg/kg	0.263 µM		0.12 mg/kg	0.11 mg/kg	0.15 mg/kg	-1,5 °C	-0,8 °C	-0,2 °C	-1,2 °C	-0,8 °C	-0,2 °C	-0,1 °C	variation of the body temperature [4, 10]: +0.1 °C
CC(C)ON=CC1=CCCN(C)C1 [Example 4, O-isopropyl-N-methyl-1,2,5,6-tetrahydropyridin-3-carboxaldehyde oxime hydrochloride]	350 mg/kg	> 1000 µM	11 µM		40 mg/kg	> 100 mg/kg								
CCCN1CCC=C(C=NOC)C1 [Example 8]	100 mg/kg	25.1 µM		0.83 mg/kg	0.34 mg/kg	1.7 mg/kg	-1,5 °C	-1,3 °C	-0,4 °C	-0,7 °C	-1,2 °C	-0,2 °C	-0,1 °C	
CCN1CCC=C(C=NOC)C1.Cl [Example 7, 1-ethyl-1,2,5,6-tetrahydro-pyridin-3-carboxaldehyde-O-methyloxime hydrochloride]		> 1000 µM	200 µM	1.16 mg/kg	0.97 mg/kg	10 mg/kg	-1,1 °C	-1,1 °C	-0,6 °C	-0,5 °C	-1,0 °C	-0,6 °C	-0,1 °C	variation of the body temperature [4, 14]: -0,2 °C
CCON=CC1=CCCN(C)C1.Cl [Example 2, 1-methyl-1,2,5,6-tetrahydropyridin-3-carboxaldehyde-O-ethyloxime hydrochloride]	250 mg/kg	> 1000 µM	180 µM	11 mg/kg	13 mg/kg	50 mg/kg								
COC(=O)C1=CCCN(C)C1 [Arecoline]														EC50 [1]: 0.331 µM; effect on patients having a memory defect [5]: positive effect; duration of action ([6]; in vivo): short duration of action; activity by oral route ([6]; oral route): very weak activity
C#CCON=CC1=CCCN(C)C1 [Example 12, 1-methyl-1,2,5,6-tetrahydropyridin-3-carboxaldehyde-O-propargyloxime]	60 mg/kg	0.479 µM		0.63 mg/kg	2 mg/kg	5.5 mg/kg								
